Test results reported in US20100291242A1, “ANTAGONIST AGAINST TOLERANCE TO ANTICANCER DRUGS” (Yoshikazu SUGIMOTO, priority 2004, published 2010).
≈ marks a conversion by molar mass, not a printed value. Like-named read-outs stand apart in the source and are kept apart here.

Key:
BCRP = details: MCF-7 cells
Method: Western blotting was performed to investigate the effect of a steroid hormone and a female hormone on MCF-7, A549, and JEG-3 cells, which intrinsically express BCRP at high level, in terms of the expression level of BCRP. […] Afterwards, expression level of BCRP was determined through the Western blotting technique using an anti-BCRP antibody. In each lane, 30 μg of protein was electrophoresed.

MCF-7/MycBCRP cells = assay: Cell growth inhibition test, MCF-7/MycBCRP cells; assay type: cell-based, human; details: for IC50: Homo sapiens, MCF7, 96 h, read-out: IC50 (concentration at which cell growth is inhibited by 50%); for IC50 / IC50 (concentration at which cell growth is inhibited by 50%): 4 days
Method: The cells were named MCF-7/MycBCRP. […] In each lane, 20 μg of protein was electrophoresed.
(§1) A cell growth inhibition test was performed to investigate the sensitivity of MCF-7 cells and MCF-7/MycBCRP cells to SN-38. Respective cells were seeded on 12-well plates (Iwaki) in amounts of 30,000 cells/1 mL/well. Subsequently, the drug, diluted with a medium to different concentrations, was added thereto (1 mL per well). The plates were placed in a 5% CO2 incubator and cultivation was performed at 37° C. for […]. Four days after, a cell solution in each well was added to a beaker containing a […] diluent (9.5 mL, To a Medical Electronics Co.). The number of cells was counted by means of a Sysmex CDA-500 automatic cell counter (To a Medical Electronics Co.).
(§2) A cell growth inhibition test was performed to investigate whether estradiol induces any change in sensitivity of MCF-7 cells and MCF-7/MycBCRP cells to SN-38. Respective cells were seeded on 12-well plates (Iwaki) in amounts of 30,000 cells/1 mL/well. Subsequently, the drug, diluted with a medium to different concentrations, was added thereto (1 mL per well). The final concentration of estradiol was adjusted to 0.03 nM or 3 nM. The plates were placed in a 5% CO2 incubator and cultivation was performed at 37° C. for 4 days. Four days after, a cell solution in each well was added to a beaker containing a […] diluent (9.5 mL, To a Medical Electronics Co.). The number of cells was counted by means of a Sysmex CDA-500 automatic cell counter (To a Medical Electronics Co.). In FIG. 4, the cell count is shown by “% of control,” which was obtained by dividing “the cell count as measured when the drug diluted to have different concentrations was added” by “the cell count as measured when no such drug was added.”

MCF-7 cells = assay: Cell growth inhibition test, MCF-7 cells; assay type: cell-based, human; details: for IC50: Homo sapiens, MCF7, 96 h, read-out: IC50 (concentration at which cell growth is inhibited by 50%); for IC50 / IC50 (concentration at which cell growth is inhibited by 50%): 4 days
Method: as §1, §2

p-glycoprotein = assay: Western blotting of exogenous p-glycoprotein expression in MCF-7/MDR1 cells; assay type: cell-based, human; details: estradiol 3 nM, 4 days, antibody C219

SMILES: CC/C(=C(/CC)c1ccc(O)cc1)c1ccc(O)cc1 [diethylstilbestrol]
- effect on expression of endogenous BCRP (in words) (BCRP): suppressive effect

SMILES: CC[C@]1(O)C[C@H]2CN(CCc3c([nH]c4ccccc34)[C@@](C(=O)OC)(c3cc4c(cc3OC)N(C=O)[C@H]3[C@@](O)(C(=O)OC)[C@H](OC(C)=O)[C@]5(CC)C=CCN6CC[C@]43[C@@H]65)C2)C1 [Vincristine, vincristine]
- IC50 (MCF-7/MycBCRP cells; E2 (estradiol) 0.03 nM): 0.68 ± 0.03 ng/mL (≈ 0.824 nM)
- IC50 (MCF-7/MycBCRP cells; E2 (estradiol) 3 nM): 0.6 ± 0.02 ng/mL (≈ 0.727 nM)
- IC50 (MCF-7 cells; E2 (estradiol) 0.03 nM): 0.64 ± 0.01 ng/mL (≈ 0.776 nM)
- IC50 (MCF-7 cells; E2 (estradiol) 3 nM): 0.6 ± 0.02 ng/mL (≈ 0.727 nM)

SMILES: CCc1c2c(nc3ccc(O)cc13)-c1cc3c(c(=O)n1C2)COC(=O)[C@]3(O)CC [SN-38, 7-ethyl-10-hydroxycamptothecin]
- increase in sensitivity at estradiol 3 nM as compared with 0.03 nM (MCF-7/MycBCRP cells): about twice
- IC50 (concentration at which cell growth is inhibited by 50%) (MCF-7/MycBCRP cells; E2 (estradiol) 0.03 nM): 2.13 ± 0.19 ng/mL (≈ 5.43 nM)
- IC50 (concentration at which cell growth is inhibited by 50%) (MCF-7/MycBCRP cells; E2 (estradiol) 3 nM): 1.09 ± 0.09 ng/mL (≈ 2.78 nM)
- sensitivity at estradiol 0.03 nM and 3 nM (in words) (MCF-7 cells): almost the same level
- IC50 (concentration at which cell growth is inhibited by 50%) (MCF-7 cells; E2 (estradiol) 0.03 nM): 0.64 ± 0.06 ng/mL (≈ 1.63 nM)
- IC50 (concentration at which cell growth is inhibited by 50%) (MCF-7 cells; E2 (estradiol) 3 nM): 0.50 ± 0.02 ng/mL (≈ 1.27 nM)

SMILES: C[C@]12CC[C@@H]3c4ccc(O)cc4CC[C@H]3[C@@H]1CC[C@@H]2O [estradiol]
- decrease of expression level of exogenous p-glycoprotein (p-glycoprotein): about 20%
